Laboratory results taken from patent US20100267561A1, “HERBICIDAL PYRIDAZINONE DERIVATIVES” (priority 2007, published 2010).

What was measured:
Type in all cases: in vivo
[1] = system: barnyardgrass (Echinochloa crus-galli); assay: Test B flooded paddy test plant response
In short: (§1)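 2-leaf plants; pots flooded 3 cm above soil; compound added to paddy water; depth maintained. Greenhouse 13–15 d. Visual rating vs controls, 0 (no effect) to 100 (complete control); dash = no result.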

[2] = system: umbrella sedge (Cyperus difformis); assay: Test B flooded paddy test plant response
In short: as §1

[3] = system: ducksalad (Heteranthera limosa); assay: Test B flooded paddy test plant response
In short: as §1

rice (Oryza sativa) = assay: Test B flooded paddy test plant response
In short: as §1

[4] = system: surinam grass (Brachiaria decumbens); assay: Test B pre-/postemergence plant response
Excerpt: (§2) Seeds of plant species selected from blackgrass (Alopecurus myosuroides), downy bromegrass (Bromus tectorum), green foxtail (Setaria viridis), Italian ryegrass (Lolium multiflorum), wheat (Triticum aestivum), wild oat (Avena fatua), catchweed bedstraw (Galium aparine), bermudagrass (Cynodon dactylon), surinam grass (Brachiaria decumbens), cocklebur (Xanthium strumarium), corn (Zea mays), large crabgrass (Digitaria sanguinalis), woolly cupgrass (Eriochloa villosa), giant foxtail (Setaria faberii), goosegrass (Eleusine indica), johnsongrass (Sorghum halepense), kochia (Kochia scoparia), lambsquarters (Chenopodium album), morningglory (Ipomoea coccinea), eastern black (E.B.) nightshade (Solanum ptycanthum), yellow nutsedge (Cyperus esculentus), pigweed (Amaranthus retroflexus), common ragweed (Ambrosia elation), Russian thistle (Salsola iberica), soybean (Glycine max), common (oilseed) sunflower (Helianthus annuus), and velvetleaf (Abutilon theophrasti) were planted and treated preemergence with test chemicals formulated in a non-phytotoxic solvent mixture which included a surfactant.
(§3) At the same time, plants selected from these crop and weed species and also winter barley (Hordeum vulgare), canarygrass (Phalaris minor), chickweed (Stellaria media) and windgrass (Apera spica-venti) were treated with postemergence applications of some of the test chemicals formulated in the same manner. Plants ranged in height from 2 to 18 cm (1- to 4-leaf stage) for postemergence treatments.
(§4) Plant species in the flooded paddy test consisted of rice (Oryza sativa), umbrella sedge (Cyperus difformis), ducksalad (Heteranthera limosa) and barnyardgrass (Echinochloa crus-galli) grown to the 2-leaf stage for testing. At time of treatment, test pots were flooded to 3 cm above the soil surface, treated by application of test compounds directly to the paddy water, and then maintained at that water depth for the duration of the test. Treated plants and controls were maintained in a greenhouse for 13 to 15 days, after which time all species were compared to controls and visually evaluated. Plant response ratings, summarized in Table B, are based on a scale of 0 to 100 where 0 is no effect and 100 is complete control. A dash (-) response means no test result.

[5] = system: morningglory (Ipomoea coccinea); assay: Test B pre-/postemergence plant response
Excerpt: as §2, §3, §4

[6] = system: downy bromegrass (Bromus tectorum); assay: Test B pre-/postemergence plant response
Excerpt: as §2, §3, §4

[7] = system: giant foxtail (Setaria faberii); assay: Test B pre-/postemergence plant response
Excerpt: as §2, §3, §4

soybean (Glycine max) = assay: Test B pre-/postemergence plant response
Excerpt: as §2, §3, §4

[8] = system: eastern black (E.B.) nightshade (Solanum ptycanthum); assay: Test B pre-/postemergence plant response; conditions: Preemergence
Excerpt: as §2, §3, §4

[9] = system: goosegrass (Eleusine indica); assay: Test B pre-/postemergence plant response
Excerpt: as §2, §3, §4

[10] = system: common (oilseed) sunflower (Helianthus annuus); assay: Test B pre-/postemergence plant response; conditions: Preemergence
Excerpt: as §2, §3, §4

[11] = system: wheat (Triticum aestivum); assay: Test B pre-/postemergence plant response
Excerpt: as §2, §3, §4

[12] = Flood (flooded paddy test), 62 g ai/ha, scale 0 to 100, 0 no effect, 100 complete control
[13] = Flood (flooded paddy test), 125 g ai/ha, scale 0 to 100, 0 no effect, 100 complete control
[14] = Flood (flooded paddy test), 250 g ai/ha, scale 0 to 100, 0 no effect, 100 complete control
[15] = Flood, 31 g ai/ha, scale 0 to 100
[16] = Postemergence, 16 g ai/ha, scale 0 to 100
[17] = Postemergence, 31 g ai/ha, scale 0 to 100, 0 no effect, 100 complete control
[18] = Postemergence, 62 g ai/ha, scale 0 to 100
[19] = Postemergence, 125 g ai/ha, scale 0 to 100
[20] = Preemergence, 16 g ai/ha, scale 0 to 100 (0 no effect, 100 complete control)
[21] = Preemergence, 31 g ai/ha, 0 to 100 scale, 0 no effect, 100 complete control
[22] = Preemergence, 62 g ai/ha, scale 0 to 100
[23] = Preemergence, 125 g ai/ha, scale 0 to 100
[24] = 16 g ai/ha, scale 0 to 100 (0 no effect, 100 complete control)
[25] = 31 g ai/ha, 0 to 100 scale, 0 no effect, 100 complete control

## CCc1cc(-c2ccc(C(F)(F)F)cc2)nn1-c1c(OC(=O)OC(C)C)cnn(C)c1=O [Compound 12]
[1]; [12]
  Plant response rating, Barnyardgrass: 30
[1]; [13]
  Plant response rating, Barnyardgrass: 60
[1]; [14]
  Plant response rating, Barnyardgrass: 80
[1]; [15]
  Plant response rating, Barnyardgrass: 0
[2]; [12]
  Plant response rating, Sedge, Umbrella: 40
[2]; [13]
  Plant response rating, Sedge, Umbrella: 60
[2]; [14]
  Plant response rating, Sedge, Umbrella: 60
[2]; [15]
  Plant response rating, Sedge, Umbrella: 0
[3]; [12]
  Plant response rating, Ducksalad: 0
[3]; [13]
  Plant response rating, Ducksalad: 40
[3]; [14]
  Plant response rating, Ducksalad: 50
[3]; [15]
  Plant response rating, Ducksalad: 0
Rice (Oryza sativa); [12]
  Plant response rating, Rice: 20
Rice (Oryza sativa); [13]
  Plant response rating, Rice: 70
Rice (Oryza sativa); [14]
  Plant response rating, Rice: 80
Rice (Oryza sativa); [15]
  Plant response rating, Rice: 0
[4]; [16]
  Plant response rating, Surinam Grass: 100
[4]; [17]
  Plant response rating, Surinam Grass: 100
[4]; [18]
  Plant response rating, Surinam Grass: 100
[4]; [19]
  Plant response rating, Surinam Grass: 100
[4]; [20]
  Plant response rating, Surinam Grass: 100
[4]; [21]
  Plant response rating, Surinam Grass: 100
[4]; [22]
  Plant response rating, Surinam Grass: 100
[4]; [23]
  Plant response rating, Surinam Grass: 100
[5]; [16]
  Plant response rating, Morningglory: 0
[5]; [17]
  Plant response rating, Morningglory: 0
[5]; [18]
  Plant response rating, Morningglory: 0
[5]; [19]
  Plant response rating, Morningglory: 40
[5]; [20]
  Plant response rating, Morningglory: 0
[5]; [21]
  Plant response rating, Morningglory: 0
[5]; [22]
  Plant response rating, Morningglory: 0
[5]; [23]
  Plant response rating, Morningglory: 0
[6]; [16]
  Plant response rating, Bromegrass, Downy: 85
[6]; [17]
  Plant response rating, Bromegrass, Downy: 85
[6]; [18]
  Plant response rating, Bromegrass, Downy: 85
[6]; [20]
  Plant response rating, Bromegrass, Downy: 0
[6]; [21]
  Plant response rating, Bromegrass, Downy: 0
[6]; [22]
  Plant response rating, Bromegrass, Downy: 70
[6]; [23]
  Plant response rating, Bromegrass, Downy: 75
[7]; [16]
  Plant response rating, Foxtail, Giant: 100
[7]; [17]
  Plant response rating, Foxtail, Giant: 100
[7]; [18]
  Plant response rating, Foxtail, Giant: 100
[7]; [19]
  Plant response rating, Foxtail, Giant: 100
[7]; [20]
  Plant response rating, Foxtail, Giant: 100
[7]; [21]
  Plant response rating, Foxtail, Giant: 100
[7]; [22]
  Plant response rating, Foxtail, Giant: 100
[7]; [23]
  Plant response rating, Foxtail, Giant: 100
Soybean (Glycine max); [16]
  Plant response rating, Soybean: 0
Soybean (Glycine max); [17]
  Plant response rating, Soybean: 0
Soybean (Glycine max); [18]
  Plant response rating, Soybean: 0
Soybean (Glycine max); [19]
  Plant response rating, Soybean: 0
Soybean (Glycine max); [20]
  Plant response rating, Soybean: 0
Soybean (Glycine max); [21]
  Plant response rating, Soybean: 0
Soybean (Glycine max); [22]
  Plant response rating, Soybean: 0
Soybean (Glycine max); [23]
  Plant response rating, Soybean: 0
[8]; [24]
  Plant response rating, Nightshade, E. B.: 0
[8]; [25]
  Plant response rating, Nightshade, E. B.: 0
[8]; 62 g ai/ha, scale 0 to 100
  Plant response rating, Nightshade, E. B.: 50
[8]; 125 g ai/ha, scale 0 to 100
  Plant response rating, Nightshade, E. B.: 85
[9]; [16]
  Plant response rating, Goosegrass: 100
[9]; [17]
  Plant response rating, Goosegrass: 100
[9]; [18]
  Plant response rating, Goosegrass: 100
[9]; [19]
  Plant response rating, Goosegrass: 100
[9]; [20]
  Plant response rating, Goosegrass: 40
[9]; [21]
  Plant response rating, Goosegrass: 98
[9]; [22]
  Plant response rating, Goosegrass: 100
[9]; [23]
  Plant response rating, Goosegrass: 100
[10]; [24]
  Plant response rating, Sunflower: 0
[10]; [25]
  Plant response rating, Sunflower: 0
[10]; 62 g ai/ha, scale 0 to 100
  Plant response rating, Sunflower: 0
[10]; 125 g ai/ha, scale 0 to 100
  Plant response rating, Sunflower: 0
[11]; [16]
  Plant response rating, Wheat: 90
[11]; [17]
  Plant response rating, Wheat: 95
[11]; [18]
  Plant response rating, Wheat: 95
[11]; [19]
  Plant response rating, Wheat: 100
[11]; [20]
  Plant response rating, Wheat: 20
[11]; [21]
  Plant response rating, Wheat: 90
[11]; [22]
  Plant response rating, Wheat: 95
[11]; [23]
  Plant response rating, Wheat: 95
